Experimental data published in US20230346827A1 (priority 2020, published 2023).

Assays:
[1] = test system: bronchial epithelial cells and HDFn + (TNFα and IL-4); assay: BioMAP BF4T system; type: cell-based, human; details: annotated relative to vehicle controls
Source text: (§1) Cell types and stimuli used in each system are as follows: 3C system [HUVEC + (IL-1β, TNFα and IFNy)], 4H system [HUVEC + (IL-4 and histamine)], LPS system [PBMC and HUVEC + LPS (TLR4 ligand)], SAg system [PBMC and HUVEC + TCR ligands], BT system [CD19+ B cells and PBMC + (α-IgM and TCR ligands)], BF4T system [bronchial epithelial cells and HDFn + (TNFα and IL-4)], BE3C system [bronchial epithelial cells + (IL-1β, TNFα and IFNy)], CASM3C system [coronary artery smooth muscle cells + (IL-1 β, TNFα and IFNy)], HDF3CGF system [HDFn + (IL-1β, TNFα, IFNy, EGF, bFGF and PDGF-BB)], KF3CT system [keratinocytes and HDFn + (IL-1β, TNFα, IFNy and TGFβ)], MyoF system [differentiated lung myofibroblasts + (TNFα and TGFβ)] and Mphg system [HUVEC and M1 macrophages + Zymosan (TLR2 ligand)].
(§2) Systems are derived from either single cell types or co-culture systems. Adherent cell types are cultured in 96 or 384-well plates until confluence, followed by the addition of PBMC (SAg and LPS systems). […] Soluble factors from supernatants are quantified using either HTRF® detection, bead-based multiplex immunoassay or capture ELISA. Overt adverse effects of test agents on cell proliferation and viability (cytotoxicity) are detected by sulforhodamine B (SRB) staining, for adherent cells, and alamarBlue® reduction for cells in suspension. […]

[2] = test system: HDFn + (IL-1β, TNFα, IFNy, EGF, bFGF and PDGF-BB); assay: BioMAP HDF3CGF system; type: cell-based, human; details: annotated relative to vehicle controls
Source text: as §1, §2

[3] = test system: ALS patients; assay: Serum metabolites (HPLC) in ALS patients before/after five weekly LMW-DS 1.0 mg/kg s.c. (Example 12); type: in vivo, human; details: post- vs pre-treatment
Experimental: After an initial screening visit, patients had five weekly dosing of a single LMW-DS (ILB®, Tikomed AB, Viken, Sweden, WO 2016/076780) injection of 1.0 mg/kg body weight in saline into the subcutaneous fat of the lower abdomen.
Peripheral venous blood samples were been collected from the patients after at least 15 minutes of complete rest, using the standard tourniquet procedure, from the antecubital vein into a single VACUETTE® polypropylene tube containing serum separator and clot activator (Greiner-Bio One GmbH, Kremsmunster, Austria). After 30 minutes at room temperature, blood withdrawals were centrifuged at 1,890 × g for 10 min and the resulting serum samples were stored at -20° C. until analysis.
After defrost, an aliquot of 500 µl of each serum sample was supplemented with 1 ml of HPLC-grade acetonitrile, vortexed for 60 seconds, centrifuged at the maximum speed in a top-bench centrifuge to precipitate proteins. Supernatants were washed with large volumes of HPLC-grade chloroform to remove organic solvent, centrifuged and the upper aqueous phases were transferred in different tubes, clearly labeled to identify the sample and stored at -80° C. until analyzed to determine different water-soluble compounds.
A second aliquot of about 300 µl of each serum sample was light-protected and then processed to extract fat-soluble antioxidants using a method described in detail elsewhere (Lazzarino et al., Single-step preparation of selected biological fluids for the high performance liquid chromatographic analysis of fat-soluble vitamins and antioxidants. J Chromatogr A. 2017; 1527: 43-52.). Briefly, samples were supplemented with 1 ml of HPLC-grade acetonitrile, vigorously vortexed for 60 s and incubated at 37° C. for 1 h in a water bath under agitation, to allow the full extraction of lipid soluble compounds. Samples were then centrifuged at 20,690 × g for 15 min at 4 C to precipitate proteins and the clear supernatants were saved at -80° C. until the HPLC analysis of fat-soluble vitamins and antioxidants.
In deproteinized serum samples, the following water-soluble compounds were separated and quantified by HPLC, according to methods described elsewhere (Tavazzi et al., Simultaneous high performance liquid chromatographic separation of purines, pyrimidines, N-acetylated amino acids, and dicarboxylic acids for the chemical diagnosis of inborn errors of metabolism. Clin Biochem. 2005; 38: 997-1008; Romitelli et al., Comparison of nitrite/nitrate concentration in human plasma and serum samples measured by the enzymatic batch Griess assay, ion-pairing HPLC and ion-trap GC-MS: The importance of a correct removal of proteins in the Griess assay. J Chromatogr B Analyt Technol Biomed Life Sci. 2007; 851: 257-267; Amorini et al., Metabolic profile of amniotic fluid as a biochemical tool to screen for inborn errors of metabolism and fetal anomalies. Mol Cell Biochem. 2012; 359: 205-216): hypoxhantine, xanthine, uric acid, malondialdehyde (MDA), nitrite, nitrate, N-acetylaspartate (NAA), citrulline (CITR), alanine (ALA), and ornithine (ORN).
The following fat-soluble vitamins and antioxidants in deproteinized serum samples were separated and quantified by HPLC according to a method as previously described (Lazzarino et al., Cerebrospinal fluid ATP metabolites in multiple sclerosis. Mult Scler J. 2010; 16: 549-554): α-tocopherol (vitamin E) and γ-tocopherol. In addition to the abovementioned fat-soluble antioxidants and vitamins, also the concentration of total bilirubin was determined in serum samples.
Comparison of the Pre- and Post-treatment subgroups was performed by the two-tailed Student’s t-test for paired samples. The comparison of each subgroup with the group of control healthy subjects was carried out by the two-tailed non-parametric Mann-Whitney U-test for unpaired observations. Differences with p < 0.05 were considered statistically significant.

In the case of sodium salt of dextran sulfate [LMW-DS], the Increased biomarker activity [1] is reported as “Eot3”, the Decreased biomarker activity [2] is reported as “VCAM-1, IP-10, ITAC, MIG, M-CSF” and the Increased biomarker activity [2] is reported as “EGFR, MMP-1, PAI-1”. For the same substance, the “serum ALA” value [3] was “normalized”, the “serum CITR” value [3] was “ameliorated” and the “serum MDA” value [3] was “decreased”. The “serum NAA” value [3] was “Significantly lower”, the “serum ORN/CITR ratio” value [3] was “ameliorated” and the serum nitrate [3] was “decreased”. For the same substance, the “serum nitrite + nitrate” value [3] was “decreased”, the “serum sum of oxypurines” value [3] was “decreased” and the serum total bilirubin [3] was “decreased”. For the same substance, the serum uric acid [3] was “decreased”, the “serum α-tocopherol” value [3] was “ameliorated” and the “serum γ-tocopherol” value [3] was “ameliorated”.
